The values below come from patent US9012642B2, “Pyrrolopyridinone compounds and methods for treating HIV” (ViiV Healthcare UK Limited, priority 2011, dated 2015).

The structures appear in SMILES notation. Like-named read-outs stand apart in the source and are kept apart here.

This experiment relates to HIV. Kind of experiment: HIV MT4 Assay (antiviral HIV activity in MT-4 cells). In kind it is cell-based. The protocol: Antiviral HIV activity and cytotoxicity values for compounds of the invention from Table 1 were measured in parallel in the HTLV-1 transformed cell line MT-4 based on the method previously described (Hazen et al., 2007, In vitro antiviral activity of the novel, tyrosyl-based human immunodeficiency virus (HIV) type 1 protease inhibitor brecanavir (GW640385) in combination with other antiretrovirals and against a panel of protease inhibitor-resistant HIV (Hazen et al., “In vitro antiviral activity of the novel, tyrosyl-based human immunodeficiency virus (HIV) type 1 protease inhibitor brecanavir (GW640385) in combination with other antiretrovirals and against a panel of protease inhibitor-resistant HIV”, Antimicrob. Agents Chemother. 2007, 51: 3147-3154; and Pauwels et al., “Sensitive and rapid assay on MT-4 cells for the detection of antiviral compounds against the AIDS virus”, (J. of Virological Methods 1987, 16: 171-185).
Luciferase activity was measured 96 hours later by adding a cell titer glo (Promega, Madison, Wis.). Percent inhibition of cell protection data was plotted relative to no compound control. Under the same condition, cytotoxicity of the compounds was determined using cell titer Glo™ (Promega, Madison, Wis.). IC50s were determined from a 10 point dose response curve using 3-4-fold serial dilution for each compound, which spans a concentration range >1000 fold.
These values are plotted against the molar compound concentrations using the standard four parameter logistic equation: y=((Vmax*x^n)/(K^n+x^n))+Y^2
Y^2=minimum y n=slope factor
Vmax=maximum y x=compound concentration [M]

Where [1] appears, read: Human immunodeficiency virus 1, MT4, HTLV-1 transformed cell line MT-4, luciferase activity measured 96 hours later, Table 3, read-out: HIV MT4 Assay IC50.
Where [2] appears, read: MT4, 96 h, read-out: MT4 (IC50).

Consider `Cn1c(C(OC(C)(C)C)C(=O)O)c(-c2ccc(Cl)cc2)c2ccn(Cc3ccc(C(F)(F)F)o3)c2c1=O` (stereo not drawn) [Example 9, 2-(tert-butoxy)-2-(4-(4-chlorophenyl)-6-methyl-7-oxo-1-((5-(trifluoromethyl)furan-2-yl)methyl)-6,7-dihydro-1H-pyrrolo[2,3-c]pyridin-5-yl)acetic acid], for which the IC50 – broadly, the concentration that gives 50% inhibition – came out at 1250 nM under setting [1] and 1250 nM under setting [2].

Regarding `Cn1c(C(OC(C)(C)C)C(=O)O)c(-c2ccc(Cl)cc2)c2ccn(Cc3cn4ccccc4n3)c2c1=O` (stereo not drawn) [Example 10, 2-(tert-butoxy)-2-(4-(4-chlorophenyl)-1-(imidazo[1,2-a]pyridin-2-ylmethyl)-6-methyl-7-oxo-6,7-dihydro-1H-pyrrolo[2,3-c]pyridin-5-yl)acetic acid], the IC50 under setting [1] is 3000 nM and the IC50 under setting [2] amounted to 3000 nM.

With `Cc1nc(Cn2ccc3c(-c4ccc(Cl)cc4)c(C(OC(C)(C)C)C(=O)O)n(C)c(=O)c32)cs1` (stereo not drawn) [Example 11, 2-(tert-butoxy)-2-(4-(4-chlorophenyl)-6-methyl-1-((2-methylthiazol-4-yl)methyl)-7-oxo-6,7-dihydro-1H-pyrrolo[2,3-c]pyridin-5-yl)acetic acid], the IC50 by setting is: under setting [1], 310 nM; under setting [2], 310 nM.

Take `Cc1ccc(NC(=O)Cn2ccc3c(-c4ccc(Cl)cc4)c(C(OC(C)(C)C)C(=O)O)n(C)c(=O)c32)c(O)c1` (stereo not drawn) [Example 12, 2-(tert-butoxy)-2-(4-(4-chlorophenyl)-1-(2-((2-hydroxy-4-methylphenyl)amino)-2-oxoethyl)-6-methyl-7-oxo-6,7-dihydro-1H-pyrrolo[2,3-c]pyridin-5-yl)acetic acid]: the IC50 was 3250 nM under setting [1] and 3250 nM under setting [2].

Turning to `CC(c1ccccc1)n1ccc2c(-c3ccc(Cl)cc3)c(C(OC(C)(C)C)C(=O)O)n(C)c(=O)c21` (stereo not drawn) [Example 13, 2-(tert-butoxy)-2-(4-(4-chlorophenyl)-6-methyl-7-oxo-1-(1-phenylethyl)-6,7-dihydro-1H-pyrrolo[2,3-c]pyridin-5-yl)acetic acid], the concentration for half-maximal inhibition (IC50) runs as follows: under setting [1], 400 nM; under setting [2], 400 nM.

For `Cn1c(C(OC(C)(C)C)C(=O)O)c(-c2ccc(Cl)cc2)c2c(Br)cn(Cc3ccccc3)c2c1=O` (stereo not drawn) [Example 14, 2-(1-benzyl-3-bromo-4-(4-chlorophenyl)-6-methyl-7-oxo-6,7-dihydro-1H-pyrrolo[2,3-c]pyridin-5-yl)-2-(tert-butoxy)acetic acid], the concentration for half-maximal inhibition (IC50) is, setting by setting: under setting [1], 750 nM; under setting [2], 750 nM.

On to `Cc1cn(Cc2ccccc2)c2c(=O)n(C)c(C(OC(C)(C)C)C(=O)O)c(-c3ccc(Cl)cc3)c12` (stereo not drawn) [Example 15, 2-(1-benzyl-4-(4-chlorophenyl)-3,6-dimethyl-7-oxo-6,7-dihydro-1H-pyrrolo[2,3-c]pyridin-5-yl)-2-(tert-butoxy)acetic acid], for which the IC50 amounted to 1620 nM under setting [1] and 1620 nM under setting [2].

For the compound `Cn1c(C(OC(C)(C)C)C(=O)O)c(-c2ccc(Cl)cc2)c2ccn(S(=O)(=O)c3ccc(F)cc3)c2c1=O` (stereo not drawn) [Example 16, 2-(tert-butoxy)-2-(4-(4-chlorophenyl)-1-((4-fluorophenyl)sulfonyl)-6-methyl-7-oxo-6,7-dihydro-1H-pyrrolo[2,3-c]pyridin-5-yl)acetic acid], the IC50 is 1800 nM under setting [1] and 1800 nM under setting [2].

Regarding `Cc1ccc(S(=O)(=O)n2ccc3c(-c4ccc(Cl)cc4)c(C(OC(C)(C)C)C(=O)O)n(C)c(=O)c32)cc1` (stereo not drawn) [Example 17, 2-(tert-butoxy)-2-(4-(4-chlorophenyl)-6-methyl-7-oxo-1-tosyl-6,7-dihydro-1H-pyrrolo[2,3-c]pyridin-5-yl)acetic acid], the IC50 runs as follows: under setting [1], 1200 nM; under setting [2], 1200 nM.

For `Cn1c(C(OC(C)(C)C)C(=O)O)c(-c2ccc(Cl)cc2)c2ccn(Cc3cn(CCO)nn3)c2c1=O` (stereo not drawn) [Example 18, 2-(tert-butoxy)-2-(4-(4-chlorophenyl)-1-((1-(2-hydroxyethyl)-1H-1,2,3-triazol-4-yl)methyl)-6-methyl-7-oxo-6,7-dihydro-1H-pyrrolo[2,3-c]pyridin-5-yl)acetic acid], the IC50 was 50000 nM under setting [1] and 50000 nM under setting [2].

Take `Cc1ccc(-c2c(C(OC(C)(C)C)C(=O)O)n(C)c(=O)c3c2ccn3Cc2ccccc2)cc1` (stereo not drawn) [Example 19, 2-(1-benzyl-6-methyl-7-oxo-4-(p-tolyl)-6,7-dihydro-1H-pyrrolo[2,3-c]pyridin-5-yl)-2-(tert-butoxy)acetic acid]: the IC50 reads like this: under setting [1], 80 nM; under setting [2], 80 nM.

In the case of `Cc1ccc(-c2c(C(OC(C)(C)C)C(=O)O)n(C)c(=O)c3c2ccn3Cc2ccc3nonc3c2)cc1` (stereo not drawn) [Example 20, 2-(1-(benzo[c][1,2,5]oxadiazol-5-ylmethyl)-6-methyl-7-oxo-4-(p-tolyl)-6,7-dihydro-1H-pyrrolo[2,3-c]pyridin-5-yl)-2-(tert-butoxy)acetic acid], the IC50 reads like this: under setting [1], 160 nM; under setting [2], 160 nM.

Regarding `Cc1ccc(-c2c(C(OC(C)(C)C)C(=O)O)n(C)c(=O)c3c2ccn3Cc2ccc(B(O)O)cc2)cc1` (stereo not drawn) [Example 21, 2-(1-(4-boronobenzyl)-6-methyl-7-oxo-4-(p-tolyl)-6,7-dihydro-1H-pyrrolo[2,3-c]pyridin-5-yl)-2-(tert-butoxy)acetic acid], the IC50 under setting [1] amounted to 2700 nM and the concentration for half-maximal inhibition (IC50) under setting [2] was 2700 nM.

As for `Cc1ccc(-c2c(C(OC(C)(C)C)C(=O)O)n(C)c(=O)c3c2ccn3Cc2ccc(C(N)=O)cc2)cc1` (stereo not drawn) [Example 22, 2-(tert-butoxy)-2-(1-(4-carbamoylbenzyl)-6-methyl-7-oxo-4-(p-tolyl)-6,7-dihydro-1H-pyrrolo[2,3-c]pyridin-5-yl)acetic acid], the IC50 reads like this: under setting [1], 8700 nM; under setting [2], 8700 nM.

As to `Cc1ccc(-c2c(C(OC(C)(C)C)C(=O)O)n(C)c(=O)c3c2ccn3Cc2ccc(SC(F)(F)F)cc2)cc1` (stereo not drawn) [Example 23, 2-(tert-butoxy)-2-(6-methyl-7-oxo-4-(p-tolyl)-1-(4-((trifluoromethyl)thio)benzyl)-6,7-dihydro-1H-pyrrolo[2,3-c]pyridin-5-yl)acetic acid], the IC50 under setting [1] came to 1500 nM and the IC50 under setting [2] was 1500 nM.

Regarding `Cc1ccc(-c2c([C@H](OC(C)(C)C)C(=O)O)n(C)c(=O)c3c2ccn3Cc2ccc(F)cc2)cc1` [Example 24, (S)-2-(tert-butoxy)-2-(1-(4-fluorobenzyl)-6-methyl-7-oxo-4-(p-tolyl)-6,7-dihydro-1H-pyrrolo[2,3-c]pyridin-5-yl)acetic acid], the IC50 reads like this: under setting [1], 40 nM; under setting [2], 40 nM.

With `Cc1ccc(-c2c(C(OC(C)(C)C)C(=O)O)n(C)c(=O)c3c2ccn3Cc2cccs2)cc1` (stereo not drawn) [Example 25, 2-(tert-butoxy)-2-(6-methyl-7-oxo-1-(thiophen-2-ylmethyl)-4-(p-tolyl)-6,7-dihydro-1H-pyrrolo[2,3-c]pyridin-5-yl)acetic acid], the IC50 turned out to be 220 nM under setting [1] and 220 nM under setting [2].

With `Cc1ccc(-c2c(C(OC(C)(C)C)C(=O)O)n(C)c(=O)c3c2ccn3CCc2ccc(F)cc2)cc1` (stereo not drawn) [Example 26, 2-(tert-butoxy)-2-(1-(4-fluorophenethyl)-6-methyl-7-oxo-4-(p-tolyl)-6,7-dihydro-1H-pyrrolo[2,3-c]pyridin-5-yl)acetic acid], the IC50 amounted to 2250 nM under setting [1] and 2250 nM under setting [2].
